In PMC11995724, “Antibiotic target discovery by integrated phenotypic and activity-based profiling of electrophilic fragments” (Cell chemical biology, 2025):

Test: in vitro
Details: human, hek293t cells

SMILES | viability at 48 h, 25 µM [%]
O=C(CCl)c1ccc(C(F)(F)F)cc1 [10-B10, 2-chloro-1-[4-(trifluoromethyl)phenyl]ethan-1-one] | 13.9
O=C(c1cc(=O)[nH]c2ccc([N+](=O)[O-])cc12)N1CCSSCC1 [10-B11, 4-(1,2,5-dithiazepane-5-carbonyl)-6-nitro-1,2-dihydroquinolin-2-one] | 111
Cc1cc(C(=O)CCl)c(C)n1C1CCS(=O)(=O)C1 (stereo not drawn) [10-B12, 3-[3-(2-chloroacetyl)-2,5-dimethyl-1H-pyrrol-1-yl]-1lambda6-thiolane-1,1-dione] | 3.75
N#Cc1ccccc1N1C(=O)C=CC1=O [10-B13, 2-(2,5-dioxo-2,5-dihydro-1H-pyrrol-1-yl)benzonitrile] | 65.2
Cc1ccc(-n2c(C)cc(C(=O)CCl)c2C)cc1C [10-B14, 2-chloro-1-[1-(3,4-dimethylphenyl)-2,5-dimethyl-1H-pyrrol-3-yl]ethan-1-one] | 0.754
COc1cc(Cl)c(C)cc1N1C(=O)C=CC1=O [10-B15, 1-(4-chloro-2-methoxy-5-methylphenyl)-2,5-dihydro-1H-pyrrole-2,5-dione] | 85.2
Cc1cc(C(=O)CCl)c(C)n1-c1cccc([N+](=O)[O-])c1 [10-B16, 2-chloro-1-[2,5-dimethyl-1-(3-nitrophenyl)-1H-pyrrol-3-yl]ethan-1-one] | 0.976
Cc1c(Cl)cccc1N1C(=O)C=CC1=O [10-B17, 1-(3-chloro-2-methylphenyl)-2,5-dihydro-1H-pyrrole-2,5-dione] | 130
Cc1cc(C(=O)CCl)c(C)n1CCc1ccccc1 [10-B18, 2-chloro-1-[2,5-dimethyl-1-(2-phenylethyl)-1H-pyrrol-3-yl]ethan-1-one] | 0.0262
CS(=O)(=O)N1CCc2cc(C(=O)CCl)ccc21 [10-B19, 2-chloro-1-(1-methanesulfonyl-2,3-dihydro-1H-indol-5-yl)ethan-1-one] | 7.21
Cc1ccc(C(=O)C(C)Cl)cc1C (stereo not drawn) [10-B20, 2-chloro-1-(3,4-dimethylphenyl)propan-1-one] | 85
O=C(NC1CC1)C1(C(=O)N2CCSSCC2)CCC1 [10-B21, N-cyclopropyl-1-(1,2,5-dithiazepane-5-carbonyl)cyclobutane-1-carboxamide] | 95.1
CCOC(=O)c1c(C)[nH]c(C(=O)C(C)Cl)c1C (stereo not drawn) [10-B22, ethyl 5-(2-chloropropanoyl)-2,4-dimethyl-1H-pyrrole-3-carboxylate] | 95.2
CCC(=O)Nc1ccc(C(=O)CCl)cc1 [10-C03, N-[4-(2-chloroacetyl)phenyl]propanamide] | 74.1
CCCc1ccc(C(=O)CCl)cc1 [10-C04, 2-chloro-1-(4-propylphenyl)ethan-1-one] | 54.6
NC(=O)c1coc(C(=O)CCl)c1 [10-C05, 5-(2-chloroacetyl)furan-3-carboxamide] | 60.9
Cc1ccc(-n2c(C)cc(C(=O)CCl)c2C)cc1F [10-C06, 2-chloro-1-[1-(3-fluoro-4-methylphenyl)-2,5-dimethyl-1H-pyrrol-3-yl]ethan-1-one] | 0.213
C=CS(=O)(=O)Nc1ccccc1 [10-C07, N-phenylethene-1-sulfonamide] | 30.8
Cc1cc(C)c(C(=O)CCl)c(C)c1 [10-C08, 2-chloro-1-(2,4,6-trimethylphenyl)ethan-1-one] | 97.8

SMILES | viability at 48 h, 25 µM [%]
O=C(CCl)c1cn(-c2cccc(C(F)(F)F)c2)nn1 [10-C09, 2-chloro-1-{1-[3-(trifluoromethyl)phenyl]-1H-1,2,3-triazol-4-yl}ethan-1-one] | 2.55
CCOC(=O)c1c(C)[nH]c(C)c1C(=O)CCl [10-C10, ethyl 4-(2-chloroacetyl)-2,5-dimethyl-1H-pyrrole-3-carboxylate] | 101
O=C(CCl)Cc1cccc(F)c1 [10-C11, 1-chloro-3-(3-fluorophenyl)propan-2-one] | 38.4
CCc1cccc2c(C(=O)CCl)c[nH]c12 [10-C12, 2-chloro-1-(7-ethyl-1H-indol-3-yl)ethan-1-one] | 0.148
O=C(CCl)c1ccc(O)cc1O [10-C14, 2-chloro-1-(2,4-dihydroxyphenyl)ethan-1-one] | 97.4
Cn1ccnc1C(=O)CCl [10-C15, 2-chloro-1-(1-methyl-1H-imidazol-2-yl)ethan-1-one] | 67.6
Cc1cc(C(=O)CCl)c(C)n1-c1ccccn1 [10-C16, 2-chloro-1-[2,5-dimethyl-1-(pyridin-2-yl)-1H-pyrrol-3-yl]ethan-1-one] | 79.6
O=C(CCl)C1CCC2(CC1)CC2 [10-C17, 2-chloro-1-{spiro[2.5]octan-6-yl}ethan-1-one] | 60.1
Cc1cc(-n2c(C)cc(C(=O)CCl)c2C)no1 [10-C18, 2-chloro-1-[2,5-dimethyl-1-(5-methyl-1,2-oxazol-3-yl)-1H-pyrrol-3-yl]ethan-1-one] | 0.308
O=C(CCl)Cc1ccc(C(F)(F)F)cc1 [10-C19, 1-chloro-3-[4-(trifluoromethyl)phenyl]propan-2-one] | 1.02
N#CC(C(=O)CCl)=C(c1ccc(F)cc1)N1CCOCC1 [10-C20, 4-chloro-2-[(4-fluorophenyl)(morpholin-4-yl)methylidene]-3-oxobutanenitrile] | 53.6
O=C1C=CC(=O)N1CCc1ccc(F)cc1 [10-C21, 1-[2-(4-fluorophenyl)ethyl]-2,5-dihydro-1H-pyrrole-2,5-dione] | 21.9
CCC(=O)N1CCc2cc(C(=O)CCl)ccc21 [10-C22, 1-[5-(2-chloroacetyl)-2,3-dihydro-1H-indol-1-yl]propan-1-one] | 90.5
Cc1cc(C(=O)CCl)c(C)n1Cc1cccs1 [10-D03, 2-chloro-1-{2,5-dimethyl-1-[(thiophen-2-yl)methyl]-1H-pyrrol-3-yl}ethan-1-one] | 104
CC(C)C(=O)Nc1ccc(C(=O)CCl)cc1 [10-D04, N-[4-(2-chloroacetyl)phenyl]-2-methylpropanamide] | 30.8
COC(=O)c1ccc2[nH]cc(C(=O)CCl)c2c1 [10-D05, methyl 3-(2-chloroacetyl)-1H-indole-5-carboxylate] | 3.01
CS(=O)(=O)NCCc1ccc(C(=O)CCl)cc1 [10-D06, N-{2-[4-(2-chloroacetyl)phenyl]ethyl}methanesulfonamide] | 18.3
O=C1C=CC(=O)N1c1ccc2ccccc2c1 [10-D07, 1-(naphthalen-2-yl)-2,5-dihydro-1H-pyrrole-2,5-dione] | 74.4
Cn1ccc(C(=O)CCl)c1 [10-D08, 2-chloro-1-(1-methyl-1H-pyrrol-3-yl)ethan-1-one] | 1.8

SMILES | viability at 48 h, 25 µM [%]
CC(=O)Nc1cccc(N2C(=O)C=CC2=O)c1 [10-D09, N-[3-(2,5-dioxo-2,5-dihydro-1H-pyrrol-1-yl)phenyl]acetamide] | 104
COc1ccc(C(=O)CCl)cc1Cl [10-D10, 2-chloro-1-(3-chloro-4-methoxyphenyl)ethan-1-one] | 1.84
COc1ccc(S(=O)(=O)N2CCSSCC2)cc1C [10-D11, 5-(4-methoxy-3-methylbenzenesulfonyl)-1,2,5-dithiazepane] | 105
Cc1csc(C(C#N)C(=O)CCl)n1 (stereo not drawn) [10-D12, 4-chloro-2-(4-methyl-1,3-thiazol-2-yl)-3-oxobutanenitrile] | 6.6
COCCn1c(C)cc(C(=O)CCl)c1C [10-D13, 2-chloro-1-[1-(2-methoxyethyl)-2,5-dimethyl-1H-pyrrol-3-yl]ethan-1-one] | 110
CC(Cl)C(=O)c1ccc(C(C)(C)C)cc1 (stereo not drawn) [10-D14, 1-(4-tert-butylphenyl)-2-chloropropan-1-one] | 77.6
O=C1C=CC(=O)N1c1ccc(F)c(Cl)c1 [10-D15, 1-(3-chloro-4-fluorophenyl)-2,5-dihydro-1H-pyrrole-2,5-dione] | 79.2
O=C(CCl)c1cc(Cl)sc1Cl [10-D16, 2-chloro-1-(2,5-dichlorothiophen-3-yl)ethan-1-one] | 1.77
O=C1C=CC(=O)N1c1ccccc1F [10-D17, 1-(2-fluorophenyl)-2,5-dihydro-1H-pyrrole-2,5-dione] | 90.3
Cc1cc(C(=O)CCl)c(C)n1-c1ccc(Cl)c(Cl)c1 [10-D18, 2-chloro-1-[1-(3,4-dichlorophenyl)-2,5-dimethyl-1H-pyrrol-3-yl]ethan-1-one] | 0.282
CS(=O)(=O)Nc1ccc(C(=O)CCl)cc1 [10-D19, N-[4-(2-chloroacetyl)phenyl]methanesulfonamide] | 76.6
O=C(CCl)Cc1c(F)cccc1Cl [10-D20, 1-chloro-3-(2-chloro-6-fluorophenyl)propan-2-one] | 37
O=C(Nc1ccc(F)cc1)N1CCSSCC1 [10-D21, N-(4-fluorophenyl)-1,2,5-dithiazepane-5-carboxamide] | 84
COC(=O)c1c(C)[nH]c(C(=O)C(C)Cl)c1C (stereo not drawn) [10-D22, methyl 5-(2-chloropropanoyl)-2,4-dimethyl-1H-pyrrole-3-carboxylate] | 83.7
CC(C)Oc1ccc2[nH]cc(C(=O)CCl)c2c1 [10-E03, 2-chloro-1-[5-(propan-2-yloxy)-1H-indol-3-yl]ethan-1-one] | 0.825
Cc1cc(C)cc(-n2c(C)cc(C(=O)CCl)c2C)c1 [10-E04, 2-chloro-1-[1-(3,5-dimethylphenyl)-2,5-dimethyl-1H-pyrrol-3-yl]ethan-1-one] | 19.1
O=C(CCl)c1c(-c2ccccc2)[nH]c2ccccc12 [10-E05, 2-chloro-1-(2-phenyl-1H-indol-3-yl)ethan-1-one] | 14.1
Cc1cc(C(=O)C(C)Cl)c(C)n1Cc1ccco1 (stereo not drawn) [10-E06, 2-chloro-1-{1-[(furan-2-yl)methyl]-2,5-dimethyl-1H-pyrrol-3-yl}propan-1-one] | 105
CSc1ccc(C(=O)CCl)cc1 [10-E07, 2-chloro-1-[4-(methylsulfanyl)phenyl]ethan-1-one] | 1.88
